Read-outs that look alike come from different tables or passages of the source. Non-standard residues stand in square brackets, D forms with d. Residues, ends and D or L forms follow the SMILES beside them. Groups on a side chain read outwards from the residue. *: point of attachment. X1 = O=C(O)CCCCCCCCCCCCCCCCCCC(=O)NC[C@H]1CC[C@H](C(=O)N[C@@H](CCC(=O)NCCOCCOCC(=O)NCCOCCOCC(=O)NCCCC[C@H](NC(=O)COCCOCCNC(=O)COCCOCCNC(=O)CC[C@H](NC(=O)[C@H]2CC[C@H](CNC(=O)CCCCCCCCCCCCCCCCCCC(=O)O)CC2)C(=O)O)C(=O)*)C(=O)O)CC1; Desaminohistidyl = O=C(CCc1c[nH]cn1)*; AEEA = NCCOCCOCC(=O)O; Aib = CC(C)(N)C(=O)O
Test: Pharmacokinetic study in minipigs (i.v.)
Settings: male, Göttingen, minipig, in vivo, iv
Experimental: The derivatives of Examples 12, 14, and 15 were dosed 2 nmol/kg. The derivatives of Examples 1 and 2 were dosed 15 nmol/kg.

[1] = minipigs, i.v., 5 nmol/kg, harmonic mean, read-out: Terminal half-live (converted)
[2] = minipigs, i.v., 2 nmol/kg, harmonic mean, read-out: Terminal half-live (converted)

half-life	SMILES	half-life [1]	half-life [2]
–	CC[C@H](C)[C@H](NC(=O)[C@H](Cc1ccccc1)NC(=O)[C@H](CCC(=O)O)NC(=O)[C@H](CCCNC(=N)N)NC(=O)[C@H](C)NC(=O)[C@H](C)NC(=O)[C@H](CCC(N)=O)NC(=O)[C@H](CCC(=O)O)NC(=O)[C@H](CCC(=O)O)NC(=O)[C@H](CC(C)C)NC(=O)[C@H](Cc1ccc(O)cc1)NC(=O)[C@H](CO)NC(=O)[C@H](CO)NC(=O)[C@@H](NC(=O)[C@H](CC(=O)O)NC(=O)[C@H](CO)NC(=O)[C@@H](NC(=O)[C@H](Cc1ccccc1)NC(=O)[C@@H](NC(=O)CNC(=O)[C@H](CCC(=O)O)NC(=O)C(C)(C)NC(=O)CCc1cnc[nH]1)[C@@H](C)O)[C@@H](C)O)C(C)C)C(=O)N[C@@H](C)C(=O)N[C@@H](Cc1c[nH]c2ccccc12)C(=O)N[C@@H](CC(C)C)C(=O)N[C@H](C(=O)N[C@@H](CCCNC(=N)N)C(=O)NCC(=O)N[C@@H](CCCNC(=N)N)C(=O)NCC(=O)NCC(=O)N[C@@H](CCCCNC(=O)COCCOCCNC(=O)COCCOCCNC(=O)[C@H](CCCCNC(=O)COCCOCCNC(=O)COCCOCCNC(=O)CC[C@H](NC(=O)[C@H]1CC[C@H](CNC(=O)CCCCCCCCCCCCCCCCCCC(=O)O)CC1)C(=O)O)NC(=O)COCCOCCNC(=O)COCCOCCNC(=O)CC[C@H](NC(=O)[C@H]1CC[C@H](CNC(=O)CCCCCCCCCCCCCCCCCCC(=O)O)CC1)C(=O)O)C(=O)O)C(C)C [Example 7, [Imp7,Aib8,Glu22,Arg26,Arg34]-GLP-1-(7-37)-peptidyl-Gly-N{Epsilon}[2-[2-[2-[[2-[2-[2-[[(2S)-2,6-bis[[2-[2-[2-[[2-[2-[2-[[(4S)-4-carboxy-4-[[4-[(19-carboxynonadecanoylamino)methyl]cyclohexanecarbonyl]amino]butanoyl]amino]ethoxy]ethoxy]acetyl]amino]ethoxy]ethoxy]acetyl]amino]hexanoyl]amino]ethoxy]ethoxy]acetyl]amino]ethoxy]ethoxy]acetyl]Lys] (Desaminohistidyl-[Aib]EGTFTSDVSSYLEEQAAREFIAWLVRGRGGK([AEEA-AEEA-X1])-OH; C-terminus assumed)	5.58 days	–
–	CC[C@H](C)[C@H](NC(=O)[C@H](Cc1ccccc1)NC(=O)[C@H](CCC(=O)O)NC(=O)[C@H](CCCNC(=N)N)NC(=O)[C@H](C)NC(=O)[C@H](C)NC(=O)[C@H](CCC(N)=O)NC(=O)[C@H](CCC(=O)O)NC(=O)[C@H](CCC(=O)O)NC(=O)[C@H](CC(C)C)NC(=O)[C@H](Cc1ccc(O)cc1)NC(=O)[C@H](CO)NC(=O)[C@H](CO)NC(=O)[C@@H](NC(=O)[C@H](CC(=O)O)NC(=O)[C@H](CO)NC(=O)[C@@H](NC(=O)[C@H](Cc1ccccc1)NC(=O)[C@@H](NC(=O)CNC(=O)[C@H](CCC(=O)O)NC(=O)C(C)(C)NC(=O)[C@@H](N)Cc1c[nH]cn1)[C@@H](C)O)[C@@H](C)O)C(C)C)C(=O)N[C@@H](C)C(=O)N[C@@H](Cc1c[nH]c2ccccc12)C(=O)N[C@@H](CC(C)C)C(=O)N[C@H](C(=O)N[C@@H](CCCNC(=N)N)C(=O)NCC(=O)N[C@@H](CCCNC(=N)N)C(=O)N[C@@H](CCCCNC(=O)COCCOCCNC(=O)COCCOCCNC(=O)COCCOCCNC(=O)COCCOCCNC(=O)COCCOCCNC(=O)COCCOCCNC(=O)[C@H](CCCCNC(=O)CC[C@H](NC(=O)[C@H]1CC[C@H](CNC(=O)CCCCCCCCCCCCCCCCCCC(=O)O)CC1)C(=O)O)NC(=O)CC[C@H](NC(=O)[C@H]1CC[C@H](CNC(=O)CCCCCCCCCCCCCCCCCCC(=O)O)CC1)C(=O)O)C(=O)O)C(C)C [Example 12]	–	5.92 days
–	CC[C@H](C)[C@H](NC(=O)[C@H](Cc1ccccc1)NC(=O)[C@H](CCC(=O)O)NC(=O)[C@H](CCCNC(=N)N)NC(=O)[C@H](C)NC(=O)[C@H](C)NC(=O)[C@H](CCC(N)=O)NC(=O)[C@H](CCC(=O)O)NC(=O)[C@H](CCC(=O)O)NC(=O)[C@H](CC(C)C)NC(=O)[C@H](Cc1ccc(O)cc1)NC(=O)[C@H](CO)NC(=O)[C@H](CO)NC(=O)[C@@H](NC(=O)[C@H](CC(=O)O)NC(=O)[C@H](CO)NC(=O)[C@@H](NC(=O)[C@H](Cc1ccccc1)NC(=O)[C@@H](NC(=O)CNC(=O)[C@H](CCC(=O)O)NC(=O)C(C)(C)NC(=O)[C@@H](N)Cc1c[nH]cn1)[C@@H](C)O)[C@@H](C)O)C(C)C)C(=O)N[C@@H](C)C(=O)N[C@@H](Cc1c[nH]c2ccccc12)C(=O)N[C@@H](CC(C)C)C(=O)N[C@H](C(=O)N[C@@H](CCCNC(=N)N)C(=O)NCC(=O)N[C@@H](CCCNC(=N)N)C(=O)N[C@@H](CCCCNC(=O)COCCOCCNC(=O)COCCOCCNC(=O)COCCOCCNC(=O)COCCOCCNC(=O)[C@H](CCCCNC(=O)COCCOCCNC(=O)COCCOCCNC(=O)CC[C@H](NC(=O)[C@H]1CC[C@H](CNC(=O)CCCCCCCCCCCCCCCCCCC(=O)O)CC1)C(=O)O)NC(=O)COCCOCCNC(=O)COCCOCCNC(=O)CC[C@H](NC(=O)[C@H]1CC[C@H](CNC(=O)CCCCCCCCCCCCCCCCCCC(=O)O)CC1)C(=O)O)C(=O)O)C(C)C [Example 15]	–	5.92 days
0.125 days	CCCCCCCCCCCC(=O)NCCOCCOCC(=O)NCCCC[C@H](NC(=O)COCCOCCNC(=O)CCCCCCCCCCC)C(=O)NCCOCCOCC(=O)NCCCC[C@H](NC(=O)[C@H](CCCNC(=N)N)NC(=O)C(C)(C)NC(=O)[C@H](CCCCN)NC(=O)[C@@H](NC(=O)[C@H](CC(C)C)NC(=O)[C@H](Cc1c[nH]c2ccccc12)NC(=O)[C@H](C)NC(=O)[C@@H](NC(=O)[C@H](Cc1ccccc1)NC(=O)[C@H](CCC(=O)O)NC(=O)[C@H](CCCCN)NC(=O)[C@H](C)NC(=O)[C@H](C)NC(=O)[C@H](CCC(N)=O)NC(=O)C(C)(C)NC(=O)[C@H](CCC(=O)O)NC(=O)[C@H](CC(C)C)NC(=O)[C@H](Cc1ccc(O)cc1)NC(=O)[C@H](CO)NC(=O)[C@H](CO)NC(=O)[C@@H](NC(=O)[C@H](CC(=O)O)NC(=O)[C@H](CO)NC(=O)[C@@H](NC(=O)[C@H](Cc1ccccc1)NC(=O)[C@@H](NC(=O)CNC(=O)[C@H](CCC(=O)O)NC(=O)C(C)(C)NC(=O)[C@@H](N)Cc1c[nH]cn1)[C@@H](C)O)[C@@H](C)O)C(C)C)[C@@H](C)CC)C(C)C)C(N)=O [Comparative Example 1, N{Epsilon-37}-[2-[2-[2-[[(2S)-2,6-bis[[2-[2-[2-(dodecanoylamino)ethoxy]ethoxy]acetyl]amino]hexanoyl]amino]ethoxy]ethoxy]acetyl]-[Aib8,Aib22,Aib35,Lys37]-GLP-1-(7-37)-peptide Amide, reference compound]	–	–
0.125 days	CCCCCCCCCCCCCC(=O)NCCOCCOCC(=O)NCCCC[C@H](NC(=O)COCCOCCNC(=O)CCCCCCCCCCCCC)C(=O)NCCOCCOCC(=O)NCCCC[C@H](NC(=O)[C@H](CCCNC(=N)N)NC(=O)C(C)(C)NC(=O)[C@H](CCCCN)NC(=O)[C@@H](NC(=O)[C@H](CC(C)C)NC(=O)[C@H](Cc1c[nH]c2ccccc12)NC(=O)[C@H](C)NC(=O)[C@@H](NC(=O)[C@H](Cc1ccccc1)NC(=O)[C@H](CCC(=O)O)NC(=O)[C@H](CCCCN)NC(=O)[C@H](C)NC(=O)[C@H](C)NC(=O)[C@H](CCC(N)=O)NC(=O)C(C)(C)NC(=O)[C@H](CCC(=O)O)NC(=O)[C@H](CC(C)C)NC(=O)[C@H](Cc1ccc(O)cc1)NC(=O)[C@H](CO)NC(=O)[C@H](CO)NC(=O)[C@@H](NC(=O)[C@H](CC(=O)O)NC(=O)[C@H](CO)NC(=O)[C@@H](NC(=O)[C@H](Cc1ccccc1)NC(=O)[C@@H](NC(=O)CNC(=O)[C@H](CCC(=O)O)NC(=O)C(C)(C)NC(=O)[C@@H](N)Cc1c[nH]cn1)[C@@H](C)O)[C@@H](C)O)C(C)C)[C@@H](C)CC)C(C)C)C(N)=O [Comparative Example 2, N{Epsilon-37}-[2-[2-[2-[[(2S)-2,6-bis[[2-[2-[2-(tetradecanoylamino)ethoxy]ethoxy]acetyl]amino]hexanoyl]amino]ethoxy]ethoxy]acetyl]-[Aib8,Aib22,Aib35,Lys37]-GLP-1-(7-37)-peptide Amide, reference compound]	–	–
–	CC[C@H](C)[C@H](NC(=O)[C@H](Cc1ccccc1)NC(=O)[C@H](CCC(=O)O)NC(=O)[C@H](CCCNC(=N)N)NC(=O)[C@H](C)NC(=O)[C@H](C)NC(=O)[C@H](CCC(N)=O)NC(=O)[C@H](CCC(=O)O)NC(=O)[C@H](CCC(=O)O)NC(=O)[C@H](CC(C)C)NC(=O)[C@H](Cc1ccc(O)cc1)NC(=O)[C@H](CO)NC(=O)[C@H](CO)NC(=O)[C@@H](NC(=O)[C@H](CC(=O)O)NC(=O)[C@H](CO)NC(=O)[C@@H](NC(=O)[C@H](Cc1ccccc1)NC(=O)[C@@H](NC(=O)CNC(=O)[C@H](CCC(=O)O)NC(=O)C(C)(C)NC(=O)[C@@H](N)Cc1c[nH]cn1)[C@@H](C)O)[C@@H](C)O)C(C)C)C(=O)N[C@@H](C)C(=O)N[C@@H](Cc1c[nH]c2ccccc12)C(=O)N[C@@H](CC(C)C)C(=O)N[C@H](C(=O)N[C@@H](CCCNC(=N)N)C(=O)NCC(=O)N[C@@H](CCCNC(=N)N)C(=O)N[C@@H](CCCCNC(=O)COCCOCCNC(=O)COCCOCCNC(=O)COCCOCCNC(=O)COCCOCCNC(=O)COCCOCCNC(=O)COCCOCCNC(=O)COCCOCCNC(=O)COCCOCCNC(=O)[C@H](CCCCNC(=O)CC[C@H](NC(=O)[C@H]1CC[C@H](CNC(=O)CCCCCCCCCCCCCCCCCCC(=O)O)CC1)C(=O)O)NC(=O)CC[C@H](NC(=O)[C@H]1CC[C@H](CNC(=O)CCCCCCCCCCCCCCCCCCC(=O)O)CC1)C(=O)O)C(=O)O)C(C)C [Example 13]	4.96 days	–

From US10392428B2, “GLP-1 derivatives and uses thereof” (Novo Nordisk A/S, priority 2014, dated 2019)
